Experimental findings from patent US10987359B2, “Oxadiazepinone derivatives and methods of treating hepatitis B infections” (priority 2016, dated 2021) are described below.

The test deals with HBV. Briefly: HBV replication inhibition assay (BDNA assay) in HepG2.2.15 cells. It is filed as cell-based. As to conditions: Hepatitis B virus, HepG2.2.15, HBV replication assay (BDNA assay), HepG2.2.15 cells; read-out: DNA EC50. Put shortly:
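Supernatant encapsidated HBV DNA was measured by bDNA after DNase digestion and proteinase K release. Stably HBV-integrated HepG2.2.15 cells had two 3-day compound exposures (0.5% DMSO). Signals were background-subtracted and normalized to DMSO wells, and EC50 was obtained by four-parameter fit.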

For orientation: EC50 means the midpoint of the concentration-response curve. Regarding `CSCC1Cn2nc3c(c2C(=O)N(C)O1)CN(C(=O)Nc1ccc(F)c(Cl)c1)CC3` (centres unmarked) [Compound 048, N-(3-chloro-4-fluoro-phenyl)-2-methyl-4-(methylsulfanylmethyl)-1-oxo-5,8,9,11-tetrahydro-4H-pyrido[2,3]pyrazolo[2,4-d][1,2,5]oxadiazepine-10-carboxamide], the EC50 was in the range of 0.001 to 0.1 µM.

For `CN1OC(CS(C)(=O)=O)Cn2nc3c(c2C1=O)CN(C(=O)Nc1ccc(F)c(Cl)c1)CC3` (centres unmarked) [Compound 050, N-(3-chloro-4-fluorophenyl)-2-methyl-4-((methylsulfonyl)methyl)-1-oxo-1,4,5,8,9,11-hexahydropyrido[4′,3′:3,4]pyrazolo[5,1-d][1,2,5]oxadiazepine-10(2H)-carboxamide], the EC50 was 0.001 to 0.1 µM. In the case of `COC(=O)OCC1Cn2nc3c(c2C(=O)N(C)O1)CN(C(=O)Nc1ccc(F)c(Cl)c1)CC3` (centres unmarked) [Compound 051, (10-((3-chloro-4-fluorophenyl)carbamoyl)-2-methyl-1-oxo-1,2,4,5,8,9,10,11-octahydropyrido[4′,3′:3,4]pyrazolo[5,1-d][1,2,5]oxadiazepin-4-yl)methyl methyl carbonate], the EC50 is 0.001 to 0.1 µM.

Consider `CC(=O)OCC1Cn2nc3c(c2C(=O)N(C)O1)CN(C(=O)Nc1ccc(F)c(Cl)c1)CC3` (centres unmarked) [Compound 052, (10-((3-chloro-4-fluorophenyl)carbamoyl)-2-methyl-1-oxo-1,2,4,5,8,9,10,11-octahydropyrido[4′,3′:3,4]pyrazolo[5,1-d][1,2,5]oxadiazepin-4-yl)methyl acetate], for which the EC50 was in the range of 0.001 to 0.1 µM.

Turning to `CC(C)OC(=O)OCC1Cn2nc3c(c2C(=O)N(C)O1)CN(C(=O)Nc1ccc(F)c(Cl)c1)CC3` (centres unmarked) [Compound 053, (10-((3-chloro-4-fluorophenyl)carbamoyl)-2-methyl-1-oxo-1,2,4,5,8,9,10,11-octahydropyrido[4′,3′:3,4]pyrazolo[5,1-d][1,2,5]oxadiazepin-4-yl)methyl isopropyl carbonate], the EC50 fell in the range of 0.001 to 0.1 µM. With `CN1OC(COC(=O)OC(C)(C)C)Cn2nc3c(c2C1=O)CN(C(=O)Nc1ccc(F)c(Cl)c1)CC3` (centres unmarked) [Compound 054, tert-butyl ((10-((3-chloro-4-fluorophenyl)carbamoyl)-2-methyl-1-oxo-1,2,4,5,8,9,10,11-octahydropyrido[4′,3′:3,4]pyrazolo[5,1-d][1,2,5]oxadiazepin-4-yl)methyl) carbonate] the figure was 0.001 to 0.1 µM; with `CN1OC(COC(=O)C(C)(C)C)Cn2nc3c(c2C1=O)CN(C(=O)Nc1ccc(F)c(Cl)c1)CC3` (centres unmarked) [Compound 055, (10-((3-chloro-4-fluorophenyl)carbamoyl)-2-methyl-1-oxo-1,2,4,5,8,9,10,11-octahydropyrido[4′,3′:3,4]pyrazolo[5,1-d][1,2,5]oxadiazepin-4-yl)methyl pivalate], 0.001 to 0.1 µM; with `CCOC(=O)OCC1Cn2nc3c(c2C(=O)N(C)O1)CN(C(=O)Nc1ccc(F)c(Cl)c1)CC3` (centres unmarked) [Compound 056, (10-((3-chloro-4-fluorophenyl)carbamoyl)-2-methyl-1-oxo-1,2,4,5,8,9,10,11-octahydropyrido[4′,3′:3,4]pyrazolo[5,1-d][1,2,5]oxadiazepin-4-yl)methyl ethyl carbonate], 0.001 to 0.1 µM.

For the molecule `CN1OC(COC(N)=O)Cn2nc3c(c2C1=O)CN(C(=O)Nc1ccc(F)c(Cl)c1)CC3` (centres unmarked) [Compound 057, (10-((3-chloro-4-fluorophenyl)carbamoyl)-2-methyl-1-oxo-1,2,4,5,8,9,10,11-octahydropyrido[4′,3′:3,4]pyrazolo[5,1-d][1,2,5]oxadiazepin-4-yl)methyl carbamate], the EC50 lay in the range of 0.001 to 0.1 µM. Take `CN(C)CC1Cn2nc3c(c2C(=O)N(C)O1)CN(C(=O)Nc1ccc(F)c(Cl)c1)CC3` (centres unmarked) [Compound 058, N-(3-chloro-4-fluoro-phenyl)-4-[(dimethylamino)methyl]-2-methyl-1-oxo-5,8,9,11-tetrahydro-4H-pyrido[2,3]pyrazolo[2,4-d][1,2,5]oxadiazepine-10-carboxamide]: the EC50 was in the range of 0.001 to 0.1 µM. With `CN(C)C(=O)OCC1Cn2nc3c(c2C(=O)N(C)O1)CN(C(=O)Nc1ccc(F)c(Cl)c1)CC3` (centres unmarked) [Compound 059, [10-[(3-chloro-4-fluoro-phenyl)carbamoyl]-2-methyl-1-oxo-5,8,9,11-tetrahydro-4H-pyrido[2,3]pyrazolo[2,4-d][1,2,5]oxadiazepin-4-yl]methyl N,N-dimethylcarbamate] the figure was 0.001 to 0.1 µM; with `CC1CON(C)C(=O)c2c3c(nn21)CCN(C(=O)Nc1ccc(F)c(Cl)c1)C3` (centres unmarked) [Compound 061, N-(3-chloro-4-fluoro-phenyl)-2,5-dimethyl-1-oxo-5,8,9,11-tetrahydro-4H-pyrido[2,3]pyrazolo[2,4-d][1,2,5]oxadiazepine-10-carboxamide], 0.001 to 0.1 µM. The value for `CC1Cn2nc3c(c2C(=O)N(C)O1)CN(C(=O)Nc1ccc(F)c(Cl)c1)CC3` (centres unmarked) [Compound 062, N-(3-chloro-4-fluorophenyl)-2,4-dimethyl-1-oxo-1,4,5,8,9,11-hexahydropyrido[4′,3′:3,4]pyrazolo[5,1-d][1,2,5]oxadiazepine-10(2H)-carboxamide] was 0.001 to 0.1 µM; that for `CC1Cn2nc3c(c2C(=O)N(C)O1)CN(C(=O)Nc1cccc(Cl)c1)CC3` (centres unmarked) [Compound 063, N-(3-chlorophenyl)-2,4-dimethyl-1-oxo-1,4,5,8,9,11-hexahydropyrido[4′,3′:3,4]pyrazole [5,1-d][1,2,5]oxadiazepine-10(2H)-carboxamide] was 0.001 to 0.1 µM; that for `CN1OC(C)(C)Cn2nc3c(c2C1=O)CN(C(=O)Nc1ccc(F)c(Cl)c1)CC3` [Compound 064, N-(3-chloro-4-fluoro-phenyl)-2,4,4-trimethyl-1-oxo-5,8,9,11-tetrahydro pyrido[2,3]pyrazolo[2,4-d][1,2,5]oxadiazepine-10-carboxamide] was 0.001 to 0.1 µM. With `COCC1Cn2nc3c(c2C(=O)N(C)O1)CN(C(=O)Nc1ccc(F)c(Cl)c1)CC3` (centres unmarked) [Compound 065, N-(3-chloro-4-fluoro-phenyl)-4-(methoxymethyl)-2-methyl-1-oxo-5,8,9,11-tetrahydro-4H-pyrido[2,3]pyrazolo[2,4-d][1,2,5]oxadiazepine-10-carboxamide] the figure was 0.001 to 0.1 µM; with `CN1OCCn2nc3c(c2C1=O)CN(C(=O)Nc1ccc(F)c(Cl)c1)CC3` [Compound 066, N-(3-chloro-4-fluoro-phenyl)-2-methyl-1-oxo-5,8,9,11-tetrahydro-4H-pyrido[2,3]pyrazolo[2,4-c][1,2,5]oxadiazepine-10-carboxamide], 0.001 to 0.1 µM; with `C=CCN1OCCn2nc3c(c2C1=O)CN(C(=O)Nc1ccc(F)c(Cl)c1)CC3` [Compound 067, 2-allyl-N-(3-chloro-4-fluoro-phenyl)-1-oxo-5,8,9,11-tetrahydro-4H-pyrido[2,3]pyrazolo[2,4-c][1,2,5]oxadiazepine-10-carboxamide], 0.001 to 0.1 µM. Turning to `CCCN1OCCn2nc3c(c2C1=O)CN(C(=O)Nc1ccc(F)c(Cl)c1)CC3` [Compound 068, N-(3-chloro-4-fluoro-phenyl)-1-oxo-2-propyl-5,8,9,11-tetrahydro-4H-pyrido[2,3]pyrazolo[2,4-c][1,2,5]oxadiazepine-10-carboxamide], the EC50 lay in the range of 0.001 to 0.1 µM. Regarding `CC1Cc2nn3c(c2CN1C(=O)Nc1cccc(Cl)c1)C(=O)N(C)OC(CO)C3` (centres unmarked) [Compound 070, N-(3-chlorophenyl)-4-(hydroxymethyl)-2,9-dimethyl-1-oxo-5,8,9,11-tetrahydro-4H-pyrido[2,3]pyrazolo[2,4-d][1,2,5]oxadiazepine-10-carboxamide], the EC50 was 0.001 to 0.1 µM.
